In experiment [1] the test system is cancer cells on SISgel or plastic. As to the kind of experiment: Activity of leads and analogs on cancer cells grown on plastic vs SISgel (cell line not stated). Particulars: for SR: ratio IC50-p/IC50-S; for Hit: YES/NO. In kind it is cell-based. How it is done: The NCI library is no longer available in the form used here, but how it was constructed is described (http://dtp.nci.nih.gov/branches/dscb/diversity_explanation.html). The ChemBridge library is a subset (Set Code NM1024) of the full 50,000 compound library (http://www.chembridge.com/screening_libraries/diversity_libraries/). Compounds were diluted to 100 μM before use. SISgel was prepared as described previously from powdered porcine small intestine submucosa obtained from Cook Biotech (W. Lafayette, IN). It is a natural product that is used extensively in tissue engineering as a bioscaffold. J82 bladder cancer cells and other cell lines were obtained from the ATCC (Bethesda, MD). […] Efficacy in vitro was assessed by plating 30,000 cells in 50 μL of high glucose DMEM with penicillin-streptomycin and 10 % fetal calf serum on SISgel in a 96-well plate containing 50 μL of gelled SISgel per well. Cells were allowed to attach and assume the SISgel phenotype for 48 h. A matching plate without SISgel was prepared 24 h later by pipetting 3,000 cells in 100 μL of high glucose DMEM with penicillin-streptomycin and 10 % fetal calf serum into each well of 96 well plate. The cells were allowed to attach and grow for 24 h. […] The cells were exposed to drug in fresh medium for 48 h, at which time the cell number was determined using the CFDA-AM cellular esterase proliferation assay (cat. #C1354, Life Technologies). For screening the results are reported as the ratio of cell count of cells on the plastic surface to the cell count on SISgel. An initial difference of 1.5 fold identified potential hits. All potential hits were confirmed in triplicate. […] Data were analyzed using nonlinear regression to a sigmoid curve with Prism 4 (GraphPad Software, Inc., LaJolla, CA). […]

The test system of experiment [2] is 4T1 stem cells (CD44v3highALDH1high 4T1 cells). As to the kind of experiment: Tumor cell growth inhibition of sphere-derived cancer stem cells (CellTiter-Glo). Particulars: suspension culture, 5 days; read-out: EC50 4T1 stem cells in suspension culture. In kind it is cell-based, mouse. How it is done:
Sphere formation to further increase the fraction of cancer stem cells was induced by suspending CD44v3highALDH1high 4T1 cells in 1:1 Matrigel/basal medium in a total of volume of 100 μl. Samples (5 × 10^4 cells) were then plated around the rims of wells in a 12-well plate and allowed to solidify at 37 °C for 10 min before 1 ml basal medium (with B27 plus 20 ng/mL EGF, 10 ng/mL FGF and 4 μg/mL insulin) was added. Medium was replenished every 3-days. Ten days after plating, spheres (tight, spherical, nonadherent masses >40 μm in diameter) per well were counted, and at least 100 spheres per group were measured. The number of spheres containing CD44v3highALDH1high 4T1 cells in each well and expressed as sphere forming units (SFU) as described previously. The number of SFUs per well was counted in triplicate wells for each condition.
To recover CD44v3highALDH1high 4T1 cells from the spheres, Matrigel–containing wells were treated with 1 mg/ml Dispase solution (Gibco). Spheres were then digested with trypsin and 0.05 % EDTA. CD44v3highALDH1high cells dissociated from spheres were counted by hemacytometer and replated to generate spheres of next generation. Serial passage of individual spheres was regularly performed in order to verify self-renewal capability of cells associated the spheres. Measurement of growth for CD44v3highALDH1high cells (dissociated from spheres) was also performed by incubating these cells in serum-free RPMI-1640 medium for 3-weeks using MTT-based growth assay as described previously.
To analyze tumor cell growth properties, sphere-derived CD44v3highALDH1high 4T1 cells were incubated in basal medium (with B27 plus 20 ng/mL EGF, 10 ng/mL FGF and 4 μg/mL insulin). Medium was replenished every 3-days. Twenty-one days after plating, the number of cell growth was then counted under a microscope at low magnification. In some cases, these sphere-derived CD44v3highALDH1high 4T1 cells were also treated with DT compounds for 5 days or doxorubicin (range 1 μM to 1 mM) for 5 days at 37 °C. The CellTiter-Glo® Luminescent Cell Viability Assay (Promega, Madison, WI) was utilized to determine the number of metabolically active cells based on the quantification of adenosine triphosphate (ATP). The percentage of […] relative to untreated controls was plotted as a linear function of drug concentration. The 50 % inhibitory concentration (IC50) was identified as the concentration of drug required to achieve a 50 % growth inhibition relative to untreated controls.
A stem cell–enriched cell population was prepared as described previously by sorting for ALDH1 and CD44v3. The identification of aldehyde dehydrogenase1 (ALDH1) activity from tumor–derived 4T1 Luc2-GFP cells (PerkinElmer, Waltham, MA) was conducted using the ALDEFLUOR kit (StemCell Technologies, Durham, NC). Specifically, tumor cells were suspended in ALDEFLUOR assay buffer containing ALDH1 substrate (BAAA, […] per 1 × 10^6 cells) and incubated for 30 min at 37 °C. As a negative control, 4T1 cells were treated with a specific ALDH1 inhibitor, […] diethylaminobenzaldehyde (DEAB). Next, for labeling cell surface marker, tumor–derived 4T1 cells were suspended in 100 μl ALDEFLUOR buffer followed by incubating with 20 μl allophycocyanin (APC)-labeled anti-CD44v3 antibody (recognizing the v3-specific domain of CD44) or APC-labeled normal mouse IgG (as a control) (BD Bioscience, San Jose, CA) for 15 min at 4 °C. For FACS sorting, tumor cells were incubated in PBS buffer followed by FACS (BD FACS Aria llu, BD Bioscience, San Jose, CA) sorting using dual-wavelength analysis as described previously. The parental cell line contained 2 % CD44v3highALDH1high cells but the final sorted cells contained 18 % CD44v3highALDH1high cells, a 9-fold enrichment.
On the technique in general: In ATP-based viability assays light output follows the ATP content of the culture.

Setting [3] is: cells on SISgel, read-out: IC50-S.
Setting [4] is: cells on plastic, read-out: IC50-p.

Where two headings read alike, the source gives them in different places.

A word on the IC50: it is the point on the concentration scale where inhibition reaches its midpoint. A word on the EC50: it is the concentration needed to bring the measured effect to its halfway point.

Consider `CCN(Cc1cccc(S(=O)(=O)[O-])c1)c1ccc(C(=C2C=CC(=[N+](CC)Cc3cccc(S(=O)(=O)[O-])c3)C=C2)c2ccc(S(=O)(=O)[O-])cc2)cc1.[Na+].[Na+]` [Light Green SF Yellowish], for which the values for the IC50 in experiment [1] (setting [3]) and in experiment [1] (setting [4]) were 315 µM and 631 µM, respectively. Besides, the SR in experiment [1] is reported as 2.
Turning to `O=S(=O)([O-])c1cc(Cl)cc(N=Nc2ccc3c(S(=O)(=O)[O-])cccc3c2O)c1O.[Na+].[Na+]` [Mordant Blue 9], the IC50 in experiment [1] (setting [3]) was 176 µM; in experiment [1] (setting [4]), 323 µM. Further, in experiment [1], the SR is on record as 1.8.
`O=S(=O)([O-])c1cc(S(=O)(=O)[O-])c2c(N=Nc3ccc(S(=O)(=O)[O-])c4ccccc34)c(O)ccc2c1.[Na+].[Na+].[Na+]` [New Coccine]: in experiment [1], the Hit result is recorded as “YES” and the SR is 1.6. Also, the IC50 in experiment [1] (setting [3]) came to 27 µM. Besides, the IC50 in experiment [1] (setting [4]) was determined as 43 µM.
For `O=S(=O)([O-])c1ccc(N=Nc2ccc(O)c3ccccc23)cc1.[Na+]` [Orange 1], in experiment [2], the EC50 was 398 µM. Moreover, the results for the IC50 in experiment [1] (setting [3]) and in experiment [1] (setting [4]) were 1200 µM and 657 µM, respectively. The SR in experiment [1] is 0.55.
In the case of `Cc1nc(N=Nc2ccc(S(=O)(=O)O)cc2S(=O)(=O)O)c(COP(=O)(O)O)c(C=O)c1O` [PPADS], the figures for the IC50 in experiment [1] (setting [3]) and in experiment [1] (setting [4]) were 293 µM and 419 µM, respectively. Also, the SR in experiment [1] is 1.4.
Take `Nc1cc(S(=O)(=O)[O-])cc2cc(S(=O)(=O)[O-])c(N=Nc3cc([N+](=O)[O-])ccc3O)c(O)c12.[Na+].[Na+]` [Palatine Chrome Green]: the IC50 in experiment [1] (setting [3]) was determined as 70 µM; in experiment [1] (setting [4]), 74 µM. For the same molecule, the SR in experiment [1] worked out at 1.1.
On to `Cc1cc(C)c(N=Nc2c(O)c(S(=O)(=O)[O-])cc3cc(S(=O)(=O)[O-])ccc23)cc1C.[Na+].[Na+]` [Ponceau 3R], for which the IC50 in experiment [1] (setting [3]) was found to be 111 µM; in experiment [1] (setting [4]), 146 µM. Besides, the SR in experiment [1] is reported as 1.3.
Consider `O=S(=O)([O-])c1cc(S(=O)(=O)[O-])c2c(N=Nc3ccc(S(=O)(=O)[O-])c4ccccc34)c(O)c(S(=O)(=O)[O-])cc2c1.[Na+].[Na+].[Na+].[Na+]` [Ponceau 6R], for which the IC50 in experiment [1] (setting [3]) came out at 107 µM; in experiment [1] (setting [4]), 124 µM. In addition, the SR in experiment [1] is recorded as 1.2.
As for `Cc1cc(C)c(S(=O)(=O)[O-])cc1N=Nc1cc(S(=O)(=O)[O-])c2ccccc2c1O.[Na+].[Na+]` [Ponceau SX], in experiment [1], the Hit entry is reported as “YES” and the SR turned out to be 3.8. In experiment [1] (setting [3]), the IC50 turned out to be 54.1 µM. Moreover, in experiment [1] (setting [4]), the IC50 turned out to be 208 µM.
As for `Cc1ccc(N=Nc2c(O)c(S(=O)(=O)[O-])cc3cc(S(=O)(=O)[O-])ccc23)c(C)c1.[Na+].[Na+]` [Ponceau Xylidine], in experiment [1], the Hit result is “YES” and the SR stood at 2.6. Moreover, in experiment [1] (setting [3]), the IC50 was 15 µM. The IC50 in experiment [1] (setting [4]) turned out to be 38 µM.
As to `COc1ccccc1N=Nc1c(S(=O)(=O)[O-])cc2cc(S(=O)(=O)[O-])cc(NC(C)=O)c2c1O.[Na+].[Na+]` [Pontacyl Carmine 2B], in experiment [1], the Hit result is listed as “YES” and the SR was found to be 2.2. Further, the IC50 in experiment [1] (setting [3]) was 24 µM. Moreover, the IC50 in experiment [1] (setting [4]) amounted to 53 µM.
`O=S(=O)([O-])c1cc(Nc2nc(Cl)nc(Cl)n2)c2c(O)c(N=Nc3ccccc3)c(S(=O)(=O)[O-])cc2c1.[Na+].[Na+]` [Procion Red Mx - 5B]: the IC50 was 57 µM in experiment [1] (setting [3]) and 77 µM in experiment [1] (setting [4]). Besides, the SR in experiment [1] is reported as 1.4.
As for `O=S(=O)([O-])c1ccccc1N=Nc1c(S(=O)(=O)[O-])cc2cc(S(=O)(=O)[O-])c(N=Nc3ccccc3S(=O)(=O)[O-])c(O)c2c1O.[Na+].[Na+].[Na+].[Na+]` [Sulfanazo II], in experiment [1], the Hit result is “YES” and the SR was determined as 2. In experiment [1] (setting [3]), the IC50 was 34 µM. Besides, the IC50 in experiment [1] (setting [4]) was 57 µM.
Consider `O=S(=O)([O-])c1ccc(N=Nc2c(S(=O)(=O)[O-])cc3cc(S(=O)(=O)[O-])cc(O)c3c2O)cc1.[Na+].[Na+].[Na+]` [Sulfanilic Acid Azochromotrop], for which the Hit result in experiment [1] was “YES”. For the same molecule, the IC50 is 19 µM in experiment [1] (setting [3]) and 38 µM in experiment [1] (setting [4]). Besides, the SR in experiment [1] amounted to 2.0.
On the same counts, the results for `O=S(=O)(O)c1cc(Cl)cc(N=Nc2c(S(=O)(=O)O)cc3cc(S(=O)(=O)O)c(N=Nc4cc(Cl)cc(S(=O)(=O)O)c4O)c(O)c3c2O)c1O` [Sulfochlorophenol S] are “YES”, 23 µM, 46 µM and 2.0.
On the same counts, the results for `O=S(=O)([O-])c1ccc(N=Nc2c(O)ccc3cc(S(=O)(=O)[O-])ccc23)cc1.[Na+].[Na+]` [Sunset Yellow FCF] are “YES”, 31 µM, 67 µM and 2.2.
Regarding `Cc1cc(-c2ccc(/N=N/c3c(S(=O)(=O)O)cc4cc(S(=O)(=O)O)cc(N)c4c3O)c(C)c2)ccc1/N=N/c1c(S(=O)(=O)O)cc2cc(S(=O)(=O)O)cc(N)c2c1O` [Trypan Blue], in experiment [1], the Hit result is recorded as “YES” and the SR is 4.5. Moreover, the IC50 in experiment [1] (setting [3]) was 36 µM. Moreover, the half-inhibitory concentration (IC50) in experiment [1] (setting [4]) was 159 µM.
`Cc1ccc(NC(=O)c2cc3ccccc3c(N=Nc3cc(S(=O)(=O)[O-])ccc3O)c2O)c(C)c1.[Na+]` [Xylidyl Blue 1]: in experiment [1], the Hit entry is given as “YES” and the SR came to 2.4. Further, the IC50 in experiment [1] (setting [3]) was found to be 45 µM. Also, the IC50 in experiment [1] (setting [4]) was found to be 106 µM.
Take nitrazine Yellow: in experiment [1], the Hit entry is “YES” and the SR was found to be 2.0. Further, the IC50 in experiment [1] (setting [3]) is 33 µM. In experiment [1] (setting [4]), the IC50 came to 65 µM.
